Experimental data as given in ChEMBL document CHEMBL5696442, “Discovery of type II inhibitors of TGFβ-activated kinase 1 (TAK1) and mitogen-activated protein kinase kinase kinase kinase 2 (MAP4K2)” (J Med Chem, 2015).
Active and inactive are the calls of the source. The rule behind the calls is not given here.

Legend:
[1] = biological target: Ribosomal protein S6 kinase alpha-3 (Homo sapiens) (UniProt P51812); assay: Inhibition of RSK2 domain2 Protein Kinase Domain labeling site in human Huh-7 cell lysate at 1 uM by KiNativ Profiling analysis relative to control; assay type: subcellular
[2] = biological target: Serine/threonine-protein kinase/endoribonuclease IRE1 (Homo sapiens) (UniProt O75460); assay: Inhibition of IRE1 Lys2 labeling site in human Huh-7 cells at 1 uM by KiNativ Profiling analysis relative to control; assay type: cell-based
Chain of Serine/threonine-protein kinase/endoribonuclease IRE1 (Homo sapiens) (O75460 19-977 limits assumed): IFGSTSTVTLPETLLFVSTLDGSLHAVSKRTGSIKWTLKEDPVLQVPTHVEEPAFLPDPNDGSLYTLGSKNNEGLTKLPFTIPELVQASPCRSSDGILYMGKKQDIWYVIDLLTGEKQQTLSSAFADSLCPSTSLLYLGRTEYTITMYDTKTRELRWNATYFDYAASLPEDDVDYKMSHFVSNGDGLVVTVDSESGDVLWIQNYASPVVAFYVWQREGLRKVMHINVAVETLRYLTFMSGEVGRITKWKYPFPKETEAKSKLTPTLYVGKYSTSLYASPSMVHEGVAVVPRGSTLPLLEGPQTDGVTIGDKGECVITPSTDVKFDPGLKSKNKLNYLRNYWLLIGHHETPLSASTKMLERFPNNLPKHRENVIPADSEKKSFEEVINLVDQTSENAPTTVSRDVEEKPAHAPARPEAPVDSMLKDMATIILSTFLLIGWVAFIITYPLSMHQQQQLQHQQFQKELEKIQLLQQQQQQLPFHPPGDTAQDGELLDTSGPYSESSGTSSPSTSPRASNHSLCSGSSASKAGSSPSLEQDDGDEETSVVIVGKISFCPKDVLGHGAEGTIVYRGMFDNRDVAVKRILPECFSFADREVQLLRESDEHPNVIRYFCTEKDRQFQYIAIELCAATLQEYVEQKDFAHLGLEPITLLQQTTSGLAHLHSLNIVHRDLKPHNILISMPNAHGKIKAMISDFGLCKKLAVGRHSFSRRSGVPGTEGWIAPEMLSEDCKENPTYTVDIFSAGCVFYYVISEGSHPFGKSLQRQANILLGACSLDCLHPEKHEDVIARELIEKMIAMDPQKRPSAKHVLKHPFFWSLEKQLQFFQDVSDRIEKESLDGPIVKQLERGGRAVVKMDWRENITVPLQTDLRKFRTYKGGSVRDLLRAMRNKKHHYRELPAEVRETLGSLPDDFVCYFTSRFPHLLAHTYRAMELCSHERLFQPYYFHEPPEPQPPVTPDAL

[3] = biological target: Cyclin-dependent kinase 1 (Homo sapiens) (UniProt P06493); assay: Inhibition of CDC2 Lys1 labeling site in human Huh-7 cell lysate at 1 uM by KiNativ Profiling analysis relative to control; assay type: subcellular
Chain of Cyclin-dependent kinase 1 (Homo sapiens) (P06493 whole entry, looked up): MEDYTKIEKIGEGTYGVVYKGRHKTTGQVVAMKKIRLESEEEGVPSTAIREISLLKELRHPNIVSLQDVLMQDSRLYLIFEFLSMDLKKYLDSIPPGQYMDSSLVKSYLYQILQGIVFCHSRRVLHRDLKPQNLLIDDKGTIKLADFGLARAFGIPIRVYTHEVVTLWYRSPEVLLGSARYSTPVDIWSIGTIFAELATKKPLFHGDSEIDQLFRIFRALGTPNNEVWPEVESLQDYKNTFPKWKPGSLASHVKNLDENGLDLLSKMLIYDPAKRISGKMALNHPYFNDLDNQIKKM

[4] = biological target: Cyclin-dependent kinase 17 (Homo sapiens) (UniProt Q00537); assay: Inhibition of PCTAIRE2 Lys1 labeling site in human Huh-7 cells at 1 uM by KiNativ Profiling analysis relative to control; assay type: cell-based
Chain of Cyclin-dependent kinase 17 (Homo sapiens) (Q00537 whole entry, looked up): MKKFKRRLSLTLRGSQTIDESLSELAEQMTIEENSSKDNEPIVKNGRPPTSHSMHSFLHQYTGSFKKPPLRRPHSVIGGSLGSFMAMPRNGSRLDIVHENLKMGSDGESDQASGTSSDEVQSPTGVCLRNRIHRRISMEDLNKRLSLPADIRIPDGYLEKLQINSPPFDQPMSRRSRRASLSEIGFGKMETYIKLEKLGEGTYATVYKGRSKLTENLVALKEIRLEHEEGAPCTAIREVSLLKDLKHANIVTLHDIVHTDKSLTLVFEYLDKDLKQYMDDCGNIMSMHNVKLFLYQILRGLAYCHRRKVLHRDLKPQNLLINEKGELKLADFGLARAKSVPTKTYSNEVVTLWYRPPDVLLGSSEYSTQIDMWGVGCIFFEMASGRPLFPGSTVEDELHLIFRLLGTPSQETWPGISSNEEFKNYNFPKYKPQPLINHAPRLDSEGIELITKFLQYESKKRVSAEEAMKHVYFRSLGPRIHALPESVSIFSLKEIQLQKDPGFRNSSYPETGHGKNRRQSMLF

[5] = biological target: T1, Mitogen-activated protein kinase kinase kinase kinase 2 (Homo sapiens) (UniProt Q12851); assay: Inhibition of MAP4K2 (GCK) Lys2 labeling site in human A-375 cells at 5 uM by KiNativ Profiling analysis relative to control; assay type: cell-based
T1 sequence (whole entry): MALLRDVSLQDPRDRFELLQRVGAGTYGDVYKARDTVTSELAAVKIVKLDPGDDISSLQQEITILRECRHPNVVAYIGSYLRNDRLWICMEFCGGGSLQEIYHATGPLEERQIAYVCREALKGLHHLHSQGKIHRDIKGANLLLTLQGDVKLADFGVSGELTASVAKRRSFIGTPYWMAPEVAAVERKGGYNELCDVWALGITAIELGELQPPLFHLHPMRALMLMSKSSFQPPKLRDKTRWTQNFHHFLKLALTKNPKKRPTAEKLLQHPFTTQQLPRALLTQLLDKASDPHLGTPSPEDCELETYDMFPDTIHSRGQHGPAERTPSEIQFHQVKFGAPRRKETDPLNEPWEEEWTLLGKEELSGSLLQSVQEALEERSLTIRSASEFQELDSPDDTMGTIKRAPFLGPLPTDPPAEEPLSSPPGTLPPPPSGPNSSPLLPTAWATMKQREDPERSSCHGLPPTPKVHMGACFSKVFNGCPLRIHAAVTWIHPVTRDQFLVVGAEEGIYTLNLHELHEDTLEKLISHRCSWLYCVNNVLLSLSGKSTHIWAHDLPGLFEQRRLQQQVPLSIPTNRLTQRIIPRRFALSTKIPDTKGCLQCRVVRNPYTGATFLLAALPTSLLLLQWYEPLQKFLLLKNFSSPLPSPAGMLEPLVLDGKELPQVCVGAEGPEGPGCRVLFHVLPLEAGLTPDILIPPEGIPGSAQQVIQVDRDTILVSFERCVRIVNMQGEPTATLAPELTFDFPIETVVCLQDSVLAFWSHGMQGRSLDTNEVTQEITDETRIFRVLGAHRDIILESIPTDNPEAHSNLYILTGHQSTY

[6] = Inhibition of TLK1/2 K2 labeling site in human Huh-7 cells at 10 uM by KiNativ Profiling analysis relative to control; conditions: condition cancer
[7] = biological target: T2, Serine/threonine-protein kinase TBK1 (Homo sapiens) (UniProt Q9UHD2); assay: Inhibition of TBK1 K1 labeling site in human Huh-7 cells at 1 uM by KiNativ Profiling analysis relative to control; assay type: cell-based
T2 sequence (whole entry): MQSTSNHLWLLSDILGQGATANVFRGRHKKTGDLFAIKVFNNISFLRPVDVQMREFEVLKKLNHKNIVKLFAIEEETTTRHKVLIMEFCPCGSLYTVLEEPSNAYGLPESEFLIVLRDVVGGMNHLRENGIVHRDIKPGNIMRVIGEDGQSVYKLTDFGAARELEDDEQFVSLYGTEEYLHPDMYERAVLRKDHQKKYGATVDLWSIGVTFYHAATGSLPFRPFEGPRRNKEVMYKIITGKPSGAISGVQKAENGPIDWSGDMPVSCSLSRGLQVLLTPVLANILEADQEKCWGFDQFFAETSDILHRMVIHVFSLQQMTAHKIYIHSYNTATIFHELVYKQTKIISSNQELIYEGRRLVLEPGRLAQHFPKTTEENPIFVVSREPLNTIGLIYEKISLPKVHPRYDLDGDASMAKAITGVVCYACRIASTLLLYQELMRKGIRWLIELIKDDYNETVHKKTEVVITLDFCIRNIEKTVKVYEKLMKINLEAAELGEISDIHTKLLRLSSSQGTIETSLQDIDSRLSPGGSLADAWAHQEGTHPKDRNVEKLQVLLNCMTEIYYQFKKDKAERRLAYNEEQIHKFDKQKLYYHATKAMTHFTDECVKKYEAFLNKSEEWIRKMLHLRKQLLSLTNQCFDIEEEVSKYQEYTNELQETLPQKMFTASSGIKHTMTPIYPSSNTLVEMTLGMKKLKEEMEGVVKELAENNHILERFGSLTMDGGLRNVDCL

[8] = biological target: Dual specificity protein kinase TTK (Homo sapiens) (UniProt P33981); assay: Inhibition of TTK (unknown origin) at 10 uM by Ambit Kinomescan binding assay relative to control; values are per cent of control
[9] = biological target: Tyrosine-protein kinase ABL1 (Homo sapiens, UniProt P00519); assay: Inhibition of ABL Lys1 labeling site in human A-375 cells at 5 uM by KiNativ Profiling analysis relative to control; assay type: cell-based
[10] = biological target: TGF-beta receptor type-2 (Homo sapiens) (UniProt P37173); assay: Inhibition of TGFBR2 (unknown origin) at 10 uM by Ambit Kinomescan binding assay
Chain of TGF-beta receptor type-2 (Homo sapiens) (P37173 whole entry): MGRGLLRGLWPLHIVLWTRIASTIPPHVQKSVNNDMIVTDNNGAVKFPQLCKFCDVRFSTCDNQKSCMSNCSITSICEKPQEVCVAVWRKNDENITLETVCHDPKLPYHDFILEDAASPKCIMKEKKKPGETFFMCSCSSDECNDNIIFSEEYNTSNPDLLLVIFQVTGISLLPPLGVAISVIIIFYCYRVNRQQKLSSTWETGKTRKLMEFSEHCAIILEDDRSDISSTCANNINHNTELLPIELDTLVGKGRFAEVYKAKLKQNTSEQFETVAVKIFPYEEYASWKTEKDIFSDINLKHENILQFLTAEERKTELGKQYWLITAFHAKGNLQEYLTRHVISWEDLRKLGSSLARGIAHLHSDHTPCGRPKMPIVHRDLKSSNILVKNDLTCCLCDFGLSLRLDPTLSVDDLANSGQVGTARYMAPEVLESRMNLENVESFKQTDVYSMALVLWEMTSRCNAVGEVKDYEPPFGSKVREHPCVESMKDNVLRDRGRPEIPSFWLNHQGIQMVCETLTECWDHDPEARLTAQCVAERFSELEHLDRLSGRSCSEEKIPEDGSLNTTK

[11] = biological target: Serine/threonine-protein kinase 4 (Homo sapiens) (UniProt Q13043); assay: Inhibition of MST1 Lys2 labeling site harbouring DIKAGNILLNTEGHAK in human A-375 cells at 5 uM by KiNativ Profiling analysis relative to control
Chain of Serine/threonine-protein kinase 4 (Homo sapiens) (Q13043 whole entry, looked up): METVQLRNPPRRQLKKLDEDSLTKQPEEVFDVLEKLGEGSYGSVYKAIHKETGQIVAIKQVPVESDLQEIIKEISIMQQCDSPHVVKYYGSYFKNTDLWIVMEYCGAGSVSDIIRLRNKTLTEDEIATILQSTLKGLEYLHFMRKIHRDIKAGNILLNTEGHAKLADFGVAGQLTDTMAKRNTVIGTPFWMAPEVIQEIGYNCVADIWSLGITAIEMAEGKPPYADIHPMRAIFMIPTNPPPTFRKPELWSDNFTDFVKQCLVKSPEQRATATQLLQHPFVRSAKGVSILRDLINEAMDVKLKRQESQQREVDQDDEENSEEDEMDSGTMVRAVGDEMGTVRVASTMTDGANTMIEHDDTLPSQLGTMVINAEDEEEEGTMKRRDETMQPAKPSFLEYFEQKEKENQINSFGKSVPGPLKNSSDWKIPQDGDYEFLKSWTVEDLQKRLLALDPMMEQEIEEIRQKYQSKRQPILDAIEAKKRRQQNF

[12] = biological target: Phosphatidylinositol 4-phosphate 5-kinase type-1 alpha (Homo sapiens) (UniProt Q99755); assay: Inhibition of PIP5K1A (unknown origin) at 1 uM by Ambit Kinomescan binding assay relative to control; values are per cent of control
Chain of Phosphatidylinositol 4-phosphate 5-kinase type-1 alpha (Homo sapiens) (Q99755 whole entry): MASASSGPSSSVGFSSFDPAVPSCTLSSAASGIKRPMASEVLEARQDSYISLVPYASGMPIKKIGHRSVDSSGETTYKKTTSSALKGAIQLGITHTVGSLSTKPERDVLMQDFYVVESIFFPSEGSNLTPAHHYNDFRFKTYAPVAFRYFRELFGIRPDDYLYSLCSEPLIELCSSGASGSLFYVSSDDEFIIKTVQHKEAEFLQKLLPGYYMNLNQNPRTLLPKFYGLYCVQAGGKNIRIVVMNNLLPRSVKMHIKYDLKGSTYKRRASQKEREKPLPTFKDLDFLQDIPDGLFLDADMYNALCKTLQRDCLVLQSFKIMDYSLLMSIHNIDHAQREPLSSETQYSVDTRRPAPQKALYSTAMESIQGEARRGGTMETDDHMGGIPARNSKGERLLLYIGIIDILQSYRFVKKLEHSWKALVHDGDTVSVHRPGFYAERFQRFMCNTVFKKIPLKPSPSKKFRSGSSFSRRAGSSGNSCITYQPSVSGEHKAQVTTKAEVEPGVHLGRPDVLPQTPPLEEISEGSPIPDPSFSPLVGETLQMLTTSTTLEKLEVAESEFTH

[13] = biological target: Activin receptor type-2A (Homo sapiens) (UniProt P27037); assay: Inhibition of ACVR2A (unknown origin) at 1 uM by Ambit Kinomescan binding assay relative to control
Chain of Activin receptor type-2A (Homo sapiens) (P27037 whole entry): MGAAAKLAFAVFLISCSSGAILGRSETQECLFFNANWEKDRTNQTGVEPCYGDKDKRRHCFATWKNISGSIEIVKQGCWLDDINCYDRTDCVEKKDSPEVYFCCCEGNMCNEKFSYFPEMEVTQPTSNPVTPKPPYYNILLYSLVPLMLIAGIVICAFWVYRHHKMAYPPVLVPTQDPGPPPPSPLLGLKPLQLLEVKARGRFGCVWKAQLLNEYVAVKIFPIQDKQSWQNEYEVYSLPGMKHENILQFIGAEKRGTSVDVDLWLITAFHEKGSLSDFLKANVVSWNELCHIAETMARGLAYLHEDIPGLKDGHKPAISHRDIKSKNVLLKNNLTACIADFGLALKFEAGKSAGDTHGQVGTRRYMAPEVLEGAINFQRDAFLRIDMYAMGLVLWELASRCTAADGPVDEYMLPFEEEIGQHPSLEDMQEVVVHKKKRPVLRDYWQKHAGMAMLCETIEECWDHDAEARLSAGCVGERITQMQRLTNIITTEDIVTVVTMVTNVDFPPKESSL

[14] = biological target: Serine/threonine-protein kinase PLK1 (Homo sapiens) (UniProt P53350); assay: Inhibition of PLK1 Lys2 labeling site in human A-375 cells at 0.5 uM by KiNativ Profiling analysis relative to control; assay type: cell-based
Chain of Serine/threonine-protein kinase PLK1 (Homo sapiens) (P53350 whole entry): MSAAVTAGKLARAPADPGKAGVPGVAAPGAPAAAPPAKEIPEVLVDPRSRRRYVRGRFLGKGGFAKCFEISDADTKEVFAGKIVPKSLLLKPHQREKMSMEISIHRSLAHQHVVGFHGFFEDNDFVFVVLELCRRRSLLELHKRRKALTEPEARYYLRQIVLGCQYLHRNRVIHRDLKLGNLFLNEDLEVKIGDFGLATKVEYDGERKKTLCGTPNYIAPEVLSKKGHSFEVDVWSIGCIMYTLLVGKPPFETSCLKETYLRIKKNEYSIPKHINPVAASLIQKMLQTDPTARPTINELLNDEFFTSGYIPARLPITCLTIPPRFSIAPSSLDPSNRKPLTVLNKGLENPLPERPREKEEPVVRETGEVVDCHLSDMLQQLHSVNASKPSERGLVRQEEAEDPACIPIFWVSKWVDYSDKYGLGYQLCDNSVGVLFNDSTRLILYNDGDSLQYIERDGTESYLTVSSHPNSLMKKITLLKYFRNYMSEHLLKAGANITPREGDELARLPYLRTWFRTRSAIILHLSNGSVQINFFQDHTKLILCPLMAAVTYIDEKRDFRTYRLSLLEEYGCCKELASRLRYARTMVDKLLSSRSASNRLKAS

Compound `CNc1cc(Oc2cc(C(=O)Nc3cc(N4CCN(C)CC4)cc(C(F)(F)F)c3)ccc2C)ncn1` has an inhibition [1] of 5.9%, an inhibition [2] of -9.9% and an inhibition [3] of 21.5%. It also gave an inhibition [4] of 12%.
For `CCN1CCN(Cc2ccc(NC(=O)c3ccc(C)c(Oc4ccnc5[nH]ccc45)c3)cc2C(F)(F)F)CC1`, the inhibition [5] was 96.6%, the inhibition at 10 µM [6] was -23.9% and the inhibition [7] was -9.5%. The residual activity [8] was 24%, the inhibition [9] was 86.8% and the inhibition [10] was “inactive”.
Work on `CCN1CCN(Cc2ccc(NC(=O)c3ccc(C)c(/C=C/c4cnc5[nH]ccc5c4OC)c3)cc2C(F)(F)F)CC1` yielded an inhibition [11] of 14.1%, a residual activity [12] of 21% and an inhibition [13] of 100%. For the same compound, the inhibition [14] was 13.2%.
